# Source: patent publication US6531459B1, “Vitamin D derivatives with phosphorus atoms in the side chains” (Schering Aktiengesellschaft, priority 1997, dated 2003)
# Target: T1, vitamin D receptor (Sus scrofa, UniProt A3RGC1)
# T1 construct: Receptor-containing protein extract is incubated in a test tube with ^3H-calcitriol; from tissue; host or cells: intestines of juvenile pigs (protein extract)
# T1 sequence (A3RGC1 1-427): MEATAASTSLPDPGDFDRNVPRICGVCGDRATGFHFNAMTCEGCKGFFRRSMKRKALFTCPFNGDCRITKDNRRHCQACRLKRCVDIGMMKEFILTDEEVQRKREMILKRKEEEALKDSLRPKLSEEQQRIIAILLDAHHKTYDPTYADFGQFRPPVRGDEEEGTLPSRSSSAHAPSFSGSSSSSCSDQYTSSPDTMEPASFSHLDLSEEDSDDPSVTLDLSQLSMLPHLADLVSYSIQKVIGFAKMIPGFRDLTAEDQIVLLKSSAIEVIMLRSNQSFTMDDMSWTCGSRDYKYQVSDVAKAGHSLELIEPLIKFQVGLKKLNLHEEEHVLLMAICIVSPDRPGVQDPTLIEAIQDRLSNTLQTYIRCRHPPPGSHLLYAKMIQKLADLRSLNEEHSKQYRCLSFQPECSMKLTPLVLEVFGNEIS
# Assay: calcitriol-receptor test (competition with 3H-calcitriol)
# Format: binding
# Settings: concentration of test substance / concentration of calcitriol at 50% competition; pig intestine protein extract, 3H-calcitriol 5×10^−10 mol/l
# Method: It is carried out using a protein extract from the intestines of juvenile pigs. […] Then, the samples are centrifuged at 10,000 g for 5 minutes at 4° C. The supernatant is decanted and measured in a β-counter after 1 hour of equilibration in Picofluor 15™.
# It is defined as a quotient of the concentrations of the respective test substance and the reference substance, which are necessary for 50% competition:
# KF=Concentration of test substance at 50% competition/Concentration of reference substance at 50% competition
row,SMILES,KF (competition factor)
1,"C=C1C(=CC=C2CCCC3(C)C2CCC3C(C)C=CC(O)P(=O)(OC(C)C)OC(C)C)CC(O)CC1O [Compound 65b, (5Z,7E,22E)-(1S,3R,24R)-(1,3,24-trihydroxy-9,10-secochola-5,7,10(19),22-tetraen-24-yl)phosphonic acid-bis(1-methylethyl)ester]",10
2,"C=C1/C(=C\C=C2/CCC[C@]3(C)[C@@H]([C@H](C)/C=C/C(CP(=O)(OCC)OCC)P(=O)(OCC)OCC)CC[C@@H]23)C[C@@H](O)C[C@@H]1O (stereo partly drawn) [Compound 29, (5Z,7E,22E)-(1S,3R,24ξ)-(1,3-Dihydroxy-24a-homo-9,10-secochola-5,7,10(19),22-tetraene-24,24a-diyl)bis[phosphonic acid diethyl ester]]",10
3,"C=C1C(=CC=C2CCCC3(C)C2CCC3C(C)C=CC(=O)C(C)(C)P(=O)(OCC)OCC)CC(O)CC1O [Compound 53, (5Z,7E,22E)-(1S,3R)-(1,3-Dihydroxy-24-oxo-9,10-secocholesta-5,7,10(19),22-tetraen-25-yl)phosphonic acid diethyl ester]",12
4,"C=C1/C(=C\C=C2/CCC[C@]3(C)[C@@H]([C@H](C)/C=C/C(=O)C(CC)(CC)P(=O)(OCC)OCC)CC[C@@H]23)C[C@@H](O)C[C@@H]1O [Compound 57, (5Z,7E,22E)-(1S,3R)-(1,3-Dihydroxy-26,27-dimethyl-24-oxo-9,10-secocholesta-5,7,10(19),22-tetraen-25-yl)phosphonic acid diethyl ester]",16
5,"C=C1/C(=C\C=C2/CCC[C@]3(C)[C@@H]([C@H](C)/C=C/C(=O)CP(=O)(OCC)OCC)CC[C@@H]23)C[C@@H](O)C[C@@H]1O [Compound 9, (5Z,7E,22E)-(1S,3R)-(1,3-Dihydroxy-24-oxo-24a-homo-9,10-secochola-5,7,10(19),22-tetraen-24a-yl)phosphonic acid diethyl ester]",10
6,"C=C1/C(=C\C=C2/CCC[C@]3(C)[C@@H]([C@H](C)/C=C/C(=O)CP(=O)(OC)OC)CC[C@@H]23)C[C@@H](O)C[C@@H]1O [Compound 5, (5Z,7E,22E)-(1S,3R)-(1,3-Dihydroxy-24-oxo-24a-homo-9,10-secochola-5,7,10(19),22-tetraen-24a-yl)phosphonic acid dimethyl ester]",10
7,"C=C1/C(=C\C=C2/CCC[C@]3(C)[C@@H]([C@H](C)/C=C/C(=O)CP(=O)(OC(C)C)OC(C)C)CC[C@@H]23)C[C@@H](O)C[C@@H]1O [Compound 13, (5Z,7E,22E)-(1S,3R)-(1,3-Dihydroxy-24-oxo-24a-homo-9,10-secochola-5,7,10(19),22-tetraen-24a-yl)phosphonic acid bis(1-methylethyl)ester]",6
